According to ChEMBL document CHEMBL3046293, “Fungicidal Activities of -Methoxyphenylacetic Acid Derivatives” (2002):

Experiments:
Assay type in all cases: functional
Pyricularia oryzae [1] = assay: Fungicidal activity against Magnaporthe oryzae Cav. race 003 assessed as rice blast disease control at 125 ppm treated 24 hr before inoculation by preventive manner
Podosphaera fuliginea [2] = assay: Fungicidal activity against Podosphaera fuliginea assessed as cucumber powdery mildew disease control at 7.8 ppm treated 24 hr before inoculation by preventive manner
Botrytis cinerea [3] = assay: Fungicidal activity against Botryotinia fuckeliana assessed as cucumber gray mold disease control at 125 ppm treated 24 hr before inoculation by preventive manner
[4] = test system: Pseudoperonospora cubensis; assay: Fungicidal activity against Pseudoperonospora cubensis assessed as cucumber downy mildew disease control at 125 ppm foliar application 24 hr after inoculation by curative manner
[5] = test system: Pseudoperonospora cubensis; assay: Fungicidal activity against Pseudoperonospora cubensis assessed as cucumber downy mildew disease control at 2 ppm foliar application 24 hr before inoculation onto the abaxial(treated) surface of leaf by preventive manner
[6] = test system: Pseudoperonospora cubensis; assay: Fungicidal activity against Pseudoperonospora cubensis assessed as cucumber downy mildew disease control at 7.8 ppm foliar application 24 hr before inoculation onto the abaxial(treated) surface of leaf by preventive manner
[7] = test system: Pseudoperonospora cubensis; assay: Fungicidal activity against Pseudoperonospora cubensis assessed as cucumber downy mildew disease control at 31.3 ppm foliar application 24 hr before inoculation onto the abaxial(treated) surface of leaf by preventive manner
[8] = test system: Pseudoperonospora cubensis; assay: Fungicidal activity against Pseudoperonospora cubensis assessed as cucumber downy mildew disease control at 125 ppm foliar application 24 hr before inoculation onto the abaxial(treated) surface of leaf by preventive manner
[9] = test system: Pseudoperonospora cubensis; assay: Fungicidal activity against Pseudoperonospora cubensis assessed as cucumber downy mildew disease control at 2 ppm foliar application 24 hr before inoculation onto the adaxial(treated) surface of leaf by preventive manner
[10] = test system: Pseudoperonospora cubensis; assay: Fungicidal activity against Pseudoperonospora cubensis assessed as cucumber downy mildew disease control at 7.8 ppm foliar application 24 hr before inoculation onto the adaxial(treated) surface of leaf by preventive manner
[11] = test system: Pseudoperonospora cubensis; assay: Fungicidal activity against Pseudoperonospora cubensis assessed as cucumber downy mildew disease control at 31.3 ppm foliar application 24 hr before inoculation onto the adaxial(treated) surface of leaf by preventive manner
[12] = test system: Pseudoperonospora cubensis; assay: Fungicidal activity against Pseudoperonospora cubensis assessed as cucumber downy mildew disease control at 125 ppm foliar application 24 hr before inoculation onto the adaxial(treated) surface of leaf by preventive manner
Botrytis cinerea [13] = assay: Fungicidal activity against Botryotinia fuckeliana assessed as cucumber gray mold disease control at 2 ppm foliar application 24 hr after inoculation by curative manner
Botrytis cinerea [14] = assay: Fungicidal activity against Botryotinia fuckeliana assessed as cucumber gray mold disease control at 7.8 ppm foliar application 24 hr after inoculation by curative manner
Botrytis cinerea [15] = assay: Fungicidal activity against Botryotinia fuckeliana assessed as cucumber gray mold disease control at 31.3 ppm foliar application 24 hr after inoculation by curative manner
Botrytis cinerea [16] = assay: Fungicidal activity against Botryotinia fuckeliana assessed as cucumber gray mold disease control at 125 ppm foliar application 24 hr after inoculation by curative manner
Botrytis cinerea [17] = assay: Fungicidal activity against Botryotinia fuckeliana assessed as cucumber gray mold disease control at 2 ppm foliar application 24 hr before inoculation by preventive manner
Botrytis cinerea [18] = assay: Fungicidal activity against Botryotinia fuckeliana assessed as cucumber gray mold disease control at 7.8 ppm foliar application 24 hr before inoculation by preventive manner
[19] = test system: Pseudoperonospora cubensis; assay: Fungicidal activity against Pseudoperonospora cubensis assessed as cucumber downy mildew disease control at 2 ppm foliar application 24 hr after inoculation by curative manner
[20] = test system: Pseudoperonospora cubensis; assay: Fungicidal activity against Pseudoperonospora cubensis assessed as cucumber downy mildew disease control at 7.8 ppm foliar application 24 hr after inoculation by curative manner
[21] = test system: Pseudoperonospora cubensis; assay: Fungicidal activity against Pseudoperonospora cubensis assessed as cucumber downy mildew disease control at 31.3 ppm foliar application 24 hr after inoculation by curative manner
Pyricularia oryzae [22] = assay: Fungicidal activity against Magnaporthe oryzae Cav. race 003 assessed as rice blast disease control at 31.3 ppm treated 24 hr before inoculation by preventive manner
Botrytis cinerea [23] = assay: Fungicidal activity against Botryotinia fuckeliana assessed as cucumber gray mold disease control at 31.3 ppm foliar application 24 hr before inoculation by preventive manner
Botrytis cinerea [24] = assay: Fungicidal activity against Botryotinia fuckeliana assessed as cucumber gray mold disease control at 125 ppm foliar application 24 hr before inoculation by preventive manner
Podosphaera fuliginea [25] = assay: Fungicidal activity against Podosphaera fuliginea assessed as cucumber powdery mildew control at 0.125 ppm foliar application 24 hr after inoculation by curative manner
Podosphaera fuliginea [26] = assay: Fungicidal activity against Podosphaera fuliginea assessed as cucumber powdery mildew control at 0.5 ppm foliar application 24 hr after inoculation by curative manner
Podosphaera fuliginea [27] = assay: Fungicidal activity against Podosphaera fuliginea assessed as cucumber powdery mildew control at 2 ppm foliar application 24 hr after inoculation by curative manner
Blumeria graminis [28] = assay: Fungicidal activity against Blumeria graminis f. sp. tritici assessed as wheat powdery mildew disease control at 2 ppm foliar application for 24 hr after inoculation by curative manner
Blumeria graminis [29] = assay: Fungicidal activity against Blumeria graminis f. sp. tritici assessed as wheat powdery mildew disease control at 7.8 ppm foliar application for 24 hr after inoculation by curative manner
Podosphaera fuliginea [30] = assay: Fungicidal activity against Podosphaera fuliginea assessed as cucumber powdery mildew control at 7.8 ppm foliar application 24 hr after inoculation by curative manner
Podosphaera fuliginea [31] = assay: Fungicidal activity against Podosphaera fuliginea assessed as cucumber powdery mildew control at 0.125 ppm foliar application 24 hr before inoculation by preventive manner
Podosphaera fuliginea [32] = assay: Fungicidal activity against Podosphaera fuliginea assessed as cucumber powdery mildew control at 0.5 ppm foliar application 24 hr before inoculation by preventive manner
Podosphaera fuliginea [33] = assay: Fungicidal activity against Podosphaera fuliginea assessed as cucumber powdery mildew control at 2 ppm foliar application 24 hr before inoculation by preventive manner
Podosphaera fuliginea [34] = assay: Fungicidal activity against Podosphaera fuliginea assessed as cucumber powdery mildew control at 7.8 ppm foliar application 24 hr before inoculation by preventive manner
Blumeria graminis [35] = assay: Fungicidal activity against Blumeria graminis f. sp. tritici assessed as wheat powdery mildew disease control at 31.3 ppm foliar application for 24 hr after inoculation by curative manner
Blumeria graminis [36] = assay: Fungicidal activity against Blumeria graminis f. sp. tritici assessed as wheat powdery mildew disease control at 125 ppm foliar application for 24 hr after inoculation by curative manner
Blumeria graminis [37] = assay: Fungicidal activity against Blumeria graminis f. sp. tritici assessed as wheat powdery mildew disease control at 2 ppm foliar application for 24 hr before inoculation by preventive manner
Blumeria graminis [38] = assay: Fungicidal activity against Blumeria graminis f. sp. tritici assessed as wheat powdery mildew disease control at 7.8 ppm foliar application for 24 hr before inoculation by preventive manner
Blumeria graminis [39] = assay: Fungicidal activity against Blumeria graminis f. sp. tritici assessed as wheat powdery mildew disease control at 31.3 ppm foliar application for 24 hr before inoculation by preventive manner
Blumeria graminis [40] = assay: Fungicidal activity against Blumeria graminis f. sp. tritici assessed as wheat powdery mildew disease control at 125 ppm foliar application for 24 hr before inoculation by preventive manner
Thanatephorus cucumeris [41] = assay: Fungicidal activity against Thanatephorus cucumeris assessed as rice sheath blight disease control at 2 ppm foliar application for 24 hr after inoculation by curative manner
Thanatephorus cucumeris [42] = assay: Fungicidal activity against Thanatephorus cucumeris assessed as rice sheath blight disease control at 7.8 ppm foliar application for 24 hr after inoculation by curative manner
Thanatephorus cucumeris [43] = assay: Fungicidal activity against Thanatephorus cucumeris assessed as rice sheath blight disease control at 31.3 ppm foliar application for 24 hr after inoculation by curative manner
Thanatephorus cucumeris [44] = assay: Fungicidal activity against Thanatephorus cucumeris assessed as rice sheath blight disease control at 125 ppm foliar application for 24 hr after inoculation by curative manner
Thanatephorus cucumeris [45] = assay: Fungicidal activity against Thanatephorus cucumeris assessed as rice sheath blight disease control at 2 ppm foliar application for 24 hr before inoculation by preventive manner
Thanatephorus cucumeris [46] = assay: Fungicidal activity against Thanatephorus cucumeris assessed as rice sheath blight disease control at 7.8 ppm foliar application for 24 hr before inoculation by preventive manner
Thanatephorus cucumeris [47] = assay: Fungicidal activity against Thanatephorus cucumeris assessed as rice sheath blight disease control at 31.3 ppm foliar application for 24 hr before inoculation by preventive manner
Thanatephorus cucumeris [48] = assay: Fungicidal activity against Thanatephorus cucumeris assessed as rice sheath blight disease control at 125 ppm foliar application for 24 hr before inoculation by preventive manner
Pyricularia oryzae [49] = assay: Fungicidal activity against Magnaporthe oryzae Cav. race 003 assessed as rice blast disease control at 2 ppm foliar application for 24 hr before inoculation by preventive manner
Pyricularia oryzae [50] = assay: Fungicidal activity against Magnaporthe oryzae Cav. race 003 assessed as rice blast disease control at 7.8 ppm foliar application for 24 hr before inoculation by preventive manner
Pyricularia oryzae [51] = assay: Fungicidal activity against Magnaporthe oryzae Cav. race 003 assessed as rice blast disease control at 31.3 ppm foliar application for 24 hr before inoculation by preventive manner
Pyricularia oryzae [52] = assay: Fungicidal activity against Magnaporthe oryzae Cav. race 003 assessed as rice blast disease control at 125 ppm foliar application for 24 hr before inoculation by preventive manner
Botrytis cinerea [53] = assay: Fungicidal activity against Botryotinia fuckeliana assessed as cucumber gray mold disease control at 7.8 ppm treated 24 hr before inoculation by preventive manner
Botrytis cinerea [54] = assay: Fungicidal activity against Botryotinia fuckeliana assessed as cucumber gray mold disease control at 31.3 ppm treated 24 hr before inoculation by preventive manner
Podosphaera fuliginea [55] = assay: Fungicidal activity against Podosphaera fuliginea assessed as cucumber powdery mildew disease control at 500 ppm treated 24 hr before inoculation by preventive manner

Measured: Activity

CNC(=O)C(OC)c1cccc(COc2ccccc2Br)c1 (configuration not stated)
90%: Pyricularia oryzae [1] | Podosphaera fuliginea [2]
50%: Botrytis cinerea [3]

CNC(=O)C(OC)c1cccc(COc2cc(C)ccc2C)c1 (configuration not stated)
80%: Botrytis cinerea [16] | Botrytis cinerea [23] | Botrytis cinerea [24] | Thanatephorus cucumeris [48]
100%: Podosphaera fuliginea [27] | Podosphaera fuliginea [30]
95%: Pyricularia oryzae [52]
50%: [5] | Botrytis cinerea [14] | Botrytis cinerea [17] | Botrytis cinerea [18] | Botrytis cinerea [53]
70%: [6] | [7] | [8] | Podosphaera fuliginea [26] | Podosphaera fuliginea [32] | Thanatephorus cucumeris [44] | Pyricularia oryzae [50]
30%: [4] | [21] | Podosphaera fuliginea [25] | Podosphaera fuliginea [31] | Thanatephorus cucumeris [42] | Pyricularia oryzae [49]
20%: Botrytis cinerea [13] | Thanatephorus cucumeris [41] | Thanatephorus cucumeris [46]
99%: Podosphaera fuliginea [34]
0%: [19] | [20]
10%: Thanatephorus cucumeris [45]
60%: Botrytis cinerea [15]
97%: [9] | [10] | [11] | [12] | Blumeria graminis [35] | Blumeria graminis [36] | Blumeria graminis [39] | Blumeria graminis [40]
40%: Thanatephorus cucumeris [43] | Thanatephorus cucumeris [47]
not listed: Pyricularia oryzae [1] | Botrytis cinerea [3] | Botrytis cinerea [54] | Podosphaera fuliginea [55]
90%: all other assays above

CNC(=O)C(OC)c1cccc(COc2cc(C)cc(C)c2)c1 (configuration not stated)
<90%: Podosphaera fuliginea [55]
90%: Pyricularia oryzae [1]
50%: Botrytis cinerea [54]
